Test results taken from patent publication US20230111310A1, “CARBOXYLIC ACID DERIVATIVE-SUBSTITUTED IMINO ARYL COMPOUND, PREPARATION METHOD THEREFOR, HERBICIDAL COMPOSITION AND USE THEREOF” (Qingdao Kingagroot Chemical Compound Co., Ltd., priority 2020, published 2023).

Assays:
Assay in all cases: Weeding effect in post-emergence stage
Format in all cases: in vivo
Eleusine indica = settings: for Weeding effect in post-emergence stage, Eleusine indica (level): fresh weight control rate level; for Weeding effect in post-emergence stage, Eleusine indica: level of fresh weight growth control rate
Summary of the method: (§1)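 Seeds are sown in soil-filled pots under 0.5-2 cm soil and grown 2 weeks in greenhouse. Plants at 2-3 leaves are sprayed with compound (acetone, Tween 80, 1.5 liter/ha methyl oleate EC, water) at 7.5 to 500 g/ha. Damage is rated 3 weeks later, averaging three repeats.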

Abutilon theophrasti = settings: for Weeding effect in post-emergence stage, Abutilon theophrasti (level): fresh weight control rate level; for Weeding effect in post-emergence stage, Abutilon theophrasti: level of fresh weight growth control rate
Summary of the method: as §1

Digitaria sanguinalis = settings: for Weeding effect in post-emergence stage, Digitaria sanguinalis (level): fresh weight control rate level; for Weeding effect in post-emergence stage, Digitaria sanguinalis: level of fresh weight growth control rate
Summary of the method: as §1

Setaria viridis = settings: for Weeding effect in post-emergence stage, Setaria viridis (level): fresh weight control rate level; for Weeding effect in post-emergence stage, Setaria viridis: level of fresh weight growth control rate
Summary of the method: as §1

Alopecurus japonicus = settings: for Weeding effect in post-emergence stage, Alopecurus japonicus (level): fresh weight control rate level; for Weeding effect in post-emergence stage, Alopecurus japonicus: level of fresh weight growth control rate
Summary of the method: as §1

Echinochloa crusgalli = settings: for Weeding effect in post-emergence stage, Echinochloa crusgalli (level): fresh weight control rate level; for Weeding effect in post-emergence stage, Echinochloa crusgalli: level of fresh weight growth control rate
Summary of the method: as §1

Compound | Weeding effect in post-emergence stage, Eleusine indica (Eleusine indica; Dose 15 g/ha) | Weeding effect in post-emergence stage, Abutilon theophrasti (Abutilon theophrasti; Dose 15 g/ha) | Weeding effect in post-emergence stage, Digitaria sanguinalis (Digitaria sanguinalis; Dose 15 g/ha) | Weeding effect in post-emergence stage, Setaria viridis (Setaria viridis; Dose 15 g/ha) | Weeding effect in post-emergence stage, Alopecurus japonicus (Alopecurus japonicus; Dose 15 g/ha) | Weeding effect in post-emergence stage, Echinochloa crusgalli (Echinochloa crusgalli; Dose 15 g/ha) | other results
COC(=O)C(O/N=C/c1cc(-n2c(=O)cc(C(F)(F)F)n(C)c2=O)c(F)cc1Cl)C1CCC1 (stereo not drawn) [Compound 488] | – | – | – | – | – | – | Weeding effect in post-emergence stage, Eleusine indica (level) (Eleusine indica; Dose 15 g/ha): 5 (Level 5: growth control rate is above 85%); Weeding effect in post-emergence stage, Abutilon theophrasti (level) (Abutilon theophrasti; Dose 15 g/ha): 5 (Level 5: growth control rate is above 85%); Weeding effect in post-emergence stage, Digitaria sanguinalis (level) (Digitaria sanguinalis; Dose 15 g/ha): 5 (Level 5: growth control rate is above 85%); Weeding effect in post-emergence stage, Setaria viridis (level) (Setaria viridis; Dose 15 g/ha): 5 (Level 5: growth control rate is above 85%); Weeding effect in post-emergence stage, Alopecurus japonicus (level) (Alopecurus japonicus; Dose 15 g/ha): 5 (Level 5: growth control rate is above 85%); Weeding effect in post-emergence stage, Echinochloa crusgalli (level) (Echinochloa crusgalli; Dose 15 g/ha): 5 (Level 5: growth control rate is above 85%)
COC(=O)C(C)O/N=C/c1cc(-n2c(=O)n(C)c(=S)n(C)c2=O)c(F)cc1Br (stereo not drawn) [Compound 83] | 5 (Level 5: growth control rate is above 85%) | 5 (Level 5: growth control rate is above 85%) | 4 (Level 4: growth control rate is greater than or equal to 60% and less than 85%) | 5 (Level 5: growth control rate is above 85%) | 4 (Level 4: growth control rate is greater than or equal to 60% and less than 85%) | 5 (Level 5: growth control rate is above 85%) | –
CCOCCOC(=O)C(C)O/N=C/c1cc(-n2c(=O)cc(C(F)(F)F)n(C)c2=O)c(F)cc1Cl (stereo not drawn) [Compound 231] | 5 (Level 5: growth control rate is above 85%) | 5 (Level 5: growth control rate is above 85%) | 5 (Level 5: growth control rate is above 85%) | 5 (Level 5: growth control rate is above 85%) | 5 (Level 5: growth control rate is above 85%) | 5 (Level 5: growth control rate is above 85%) | –
CC/C(C)=N/OC(=O)C(C)O/N=C/c1cc(-n2c(=O)cc(C(F)(F)F)n(C)c2=O)c(F)cc1Cl (stereo not drawn) [Compound 249] | 5 (Level 5: growth control rate is above 85%) | 5 (Level 5: growth control rate is above 85%) | 5 (Level 5: growth control rate is above 85%) | 5 (Level 5: growth control rate is above 85%) | 5 (Level 5: growth control rate is above 85%) | 5 (Level 5: growth control rate is above 85%) | –
CCCCCOC(=O)C(C)O/N=C/c1cc(-n2c(=O)cc(C(F)(F)F)n(C)c2=O)c(F)cc1Cl (racemic) [Compound 203] | 5 (Level 5: growth control rate is above 85%) | 5 (Level 5: growth control rate is above 85%) | 5 (Level 5: growth control rate is above 85%) | 5 (Level 5: growth control rate is above 85%) | 5 (Level 5: growth control rate is above 85%) | 5 (Level 5: growth control rate is above 85%) | –
CC(O/N=C/c1cc(-n2c(=O)cc(C(F)(F)F)n(C)c2=O)c(F)cc1Cl)C(=O)OCc1ccccc1F (stereo not drawn) [Compound 284] | 5 (Level 5: growth control rate is above 85%) | 5 (Level 5: growth control rate is above 85%) | 5 (Level 5: growth control rate is above 85%) | 5 (Level 5: growth control rate is above 85%) | 5 (Level 5: growth control rate is above 85%) | 5 (Level 5: growth control rate is above 85%) | –
CC(O/N=C/c1cc(-n2c(=O)n(C)c(=S)n(C)c2=O)c(F)cc1Cl)C(=O)OCc1ccncc1 (stereo not drawn) [Compound 60] | 5 (Level 5: growth control rate is above 85%) | 5 (Level 5: growth control rate is above 85%) | 5 (Level 5: growth control rate is above 85%) | 5 (Level 5: growth control rate is above 85%) | 4 (Level 4: growth control rate is greater than or equal to 60% and less than 85%) | 5 (Level 5: growth control rate is above 85%) | –
COC(=O)[C@@H](C)O/N=C/c1cc(-n2c(=O)cc(C(F)(F)F)n(C)c2=S)c(F)cc1C(F)(F)F [395(R)] | – | – | – | – | – | – | Weeding effect in post-emergence stage, Eleusine indica (level) (Eleusine indica; Dose 60 g/ha): 5 (Level 5: growth control rate is above 85%); Weeding effect in post-emergence stage, Abutilon theophrasti (level) (Abutilon theophrasti; Dose 60 g/ha): 5 (Level 5: growth control rate is above 85%); Weeding effect in post-emergence stage, Digitaria sanguinalis (level) (Digitaria sanguinalis; Dose 60 g/ha): 5 (Level 5: growth control rate is above 85%); Weeding effect in post-emergence stage, Setaria viridis (level) (Setaria viridis; Dose 60 g/ha): 5 (Level 5: growth control rate is above 85%); Weeding effect in post-emergence stage, Alopecurus japonicus (level) (Alopecurus japonicus; Dose 60 g/ha): 5 (Level 5: growth control rate is above 85%); Weeding effect in post-emergence stage, Echinochloa crusgalli (level) (Echinochloa crusgalli; Dose 60 g/ha): 5 (Level 5: growth control rate is above 85%)
CC(O/N=C/c1cc(-n2c(=O)cc(C(F)(F)F)n(C)c2=O)c(F)cc1Cl)C(=O)NS(=O)(=O)N(C)C(C)C (stereo not drawn) [Compound 421] | – | – | – | – | – | – | Weeding effect in post-emergence stage, Eleusine indica (level) (Eleusine indica; Dose 15 g/ha): 5 (Level 5: growth control rate is above 85%); Weeding effect in post-emergence stage, Abutilon theophrasti (level) (Abutilon theophrasti; Dose 15 g/ha): 5 (Level 5: growth control rate is above 85%); Weeding effect in post-emergence stage, Digitaria sanguinalis (level) (Digitaria sanguinalis; Dose 15 g/ha): 5 (Level 5: growth control rate is above 85%); Weeding effect in post-emergence stage, Setaria viridis (level) (Setaria viridis; Dose 15 g/ha): 5 (Level 5: growth control rate is above 85%); Weeding effect in post-emergence stage, Alopecurus japonicus (level) (Alopecurus japonicus; Dose 15 g/ha): 5 (Level 5: growth control rate is above 85%); Weeding effect in post-emergence stage, Echinochloa crusgalli (level) (Echinochloa crusgalli; Dose 15 g/ha): 5 (Level 5: growth control rate is above 85%)
CC(O/N=C/c1cc(-n2c(=O)n(C)c(=S)n(C)c2=O)c(F)cc1Cl)C(=O)OCCF (racemic) [Compound 10] | 5 (Level 5: growth control rate is above 85%) | 5 (Level 5: growth control rate is above 85%) | 5 (Level 5: growth control rate is above 85%) | 5 (Level 5: growth control rate is above 85%) | 5 (Level 5: growth control rate is above 85%) | 5 (Level 5: growth control rate is above 85%) | –
C=CCCOC(=O)[C@@H](C)O/N=C/c1cc(-n2c(=O)n(C)c(=S)n(C)c2=O)c(F)cc1Cl [6(R)] | 5 (Level 5: growth control rate is above 85%) | 5 (Level 5: growth control rate is above 85%) | 5 (Level 5: growth control rate is above 85%) | 5 (Level 5: growth control rate is above 85%) | 5 (Level 5: growth control rate is above 85%) | 5 (Level 5: growth control rate is above 85%) | –
C/C(=N\OC(=O)[C@@H](C)O/N=C/c1cc(-n2c(=O)cc(C(F)(F)F)n(C)c2=O)c(F)cc1Cl)C1CC1 [450(R)] | – | – | – | – | – | – | Weeding effect in post-emergence stage, Eleusine indica (level) (Eleusine indica; Dose 15 g/ha): 5 (Level 5: growth control rate is above 85%); Weeding effect in post-emergence stage, Abutilon theophrasti (level) (Abutilon theophrasti; Dose 15 g/ha): 5 (Level 5: growth control rate is above 85%); Weeding effect in post-emergence stage, Digitaria sanguinalis (level) (Digitaria sanguinalis; Dose 15 g/ha): 5 (Level 5: growth control rate is above 85%); Weeding effect in post-emergence stage, Setaria viridis (level) (Setaria viridis; Dose 15 g/ha): 5 (Level 5: growth control rate is above 85%); Weeding effect in post-emergence stage, Alopecurus japonicus (level) (Alopecurus japonicus; Dose 15 g/ha): 5 (Level 5: growth control rate is above 85%); Weeding effect in post-emergence stage, Echinochloa crusgalli (level) (Echinochloa crusgalli; Dose 15 g/ha): 5 (Level 5: growth control rate is above 85%)
CCOC(=O)COC(=O)[C@@H](C)O/N=C/c1cc(-n2c(=O)n(C)c(=S)n(C)c2=O)c(F)cc1Cl [17(R)] | 5 (Level 5: growth control rate is above 85%) | 5 (Level 5: growth control rate is above 85%) | 5 (Level 5: growth control rate is above 85%) | 5 (Level 5: growth control rate is above 85%) | 5 (Level 5: growth control rate is above 85%) | 5 (Level 5: growth control rate is above 85%) | –
COC(=O)C(C)ON=Cc1nc(-n2c(=O)n(C)c(=S)n(C)c2=O)c(F)cc1Cl (stereo not drawn) [Compound 511] | – | – | – | – | – | – | Weeding effect in post-emergence stage, Eleusine indica (level) (Eleusine indica; Dose 15 g/ha): 5 (Level 5: growth control rate is above 85%); Weeding effect in post-emergence stage, Abutilon theophrasti (level) (Abutilon theophrasti; Dose 15 g/ha): 5 (Level 5: growth control rate is above 85%); Weeding effect in post-emergence stage, Digitaria sanguinalis (level) (Digitaria sanguinalis; Dose 15 g/ha): 5 (Level 5: growth control rate is above 85%); Weeding effect in post-emergence stage, Setaria viridis (level) (Setaria viridis; Dose 15 g/ha): 5 (Level 5: growth control rate is above 85%); Weeding effect in post-emergence stage, Alopecurus japonicus (level) (Alopecurus japonicus; Dose 15 g/ha): 5 (Level 5: growth control rate is above 85%); Weeding effect in post-emergence stage, Echinochloa crusgalli (level) (Echinochloa crusgalli; Dose 15 g/ha): 5 (Level 5: growth control rate is above 85%)
CC(O/N=C/c1cc(-n2c(=O)cc(C(F)(F)F)n(C)c2=O)c(F)cc1Cl)C(=O)SCc1ccccc1 (stereo not drawn) [Compound 409] | – | – | – | – | – | – | Weeding effect in post-emergence stage, Eleusine indica (level) (Eleusine indica; Dose 30 g/ha): 5 (Level 5: growth control rate is above 85%); Weeding effect in post-emergence stage, Abutilon theophrasti (level) (Abutilon theophrasti; Dose 30 g/ha): 5 (Level 5: growth control rate is above 85%); Weeding effect in post-emergence stage, Digitaria sanguinalis (level) (Digitaria sanguinalis; Dose 30 g/ha): 5 (Level 5: growth control rate is above 85%); Weeding effect in post-emergence stage, Setaria viridis (level) (Setaria viridis; Dose 30 g/ha): 5 (Level 5: growth control rate is above 85%); Weeding effect in post-emergence stage, Alopecurus japonicus (level) (Alopecurus japonicus; Dose 30 g/ha): 5 (Level 5: growth control rate is above 85%); Weeding effect in post-emergence stage, Echinochloa crusgalli (level) (Echinochloa crusgalli; Dose 30 g/ha): 5 (Level 5: growth control rate is above 85%)
